Measured values taken from ChEMBL document CHEMBL1201862, “PubChem BioAssay data set” (2004).
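Results reflect a 48-hour exposure of cells in 96-well plates to compound at five concentrations. The concentration for 50% growth inhibition is given as GI50.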 Calls of active or inactive are those of the source. No stated cut-off is given here; in the data, active = GI50 up to about 1.1 µM and inactive = higher.

Key:
Assay in all cases: NCI-60 cell line screen, 48 h
SK-MEL-2 = system: SK-MEL-2
MDA-MB-435 = system: MDA-MB-435
BT-549 = system: BT-549
HCT-15 = system: HCT-15
M14 = system: M14
A549 = system: A549
SF-295 = system: SF-295
EKVX = system: EKVX
Malme-3M = system: Malme-3M
NCI-H226 = system: NCI-H226
SK-OV-3 = system: SK-OV-3
SR = system: SR
MDA-MB-231 = system: MDA-MB-231
786-0 = system: 786-0
NCI-H23 = system: NCI-H23
HT-29 = system: HT-29
KM12 = system: KM12
SK-MEL-28 = system: SK-MEL-28
OVCAR-3 = system: OVCAR-3

| Compound | GI50 (SK-MEL-2) | GI50 (MDA-MB-435) | GI50 (BT-549) | GI50 (HCT-15) [µM] | GI50 (M14) | GI50 (A549) | GI50 (SF-295) | GI50 (EKVX) | GI50 (Malme-3M) | GI50 (NCI-H226) | GI50 (SK-OV-3) | GI50 (SR) | GI50 (MDA-MB-231) | GI50 (786-0) | GI50 (NCI-H23) | GI50 (HT-29) | GI50 (KM12) | GI50 (SK-MEL-28) | GI50 (OVCAR-3) |
| --- | --- | --- | --- | --- | --- | --- | --- | --- | --- | --- | --- | --- | --- | --- | --- | --- | --- | --- | --- |
| N#CC12C(=O)N=C(N)C1(C#N)C(c1ccco1)NC1=C2CCCC1 (centres undefined) | > 100 µM (inactive) | > 100 µM (inactive) | > 100 µM (inactive) | > 100 | > 100 µM (inactive) | > 100 µM (inactive) | > 100 µM (inactive) | > 100 µM (inactive) | > 100 µM (inactive) | > 100 µM (inactive) | > 100 µM (inactive) | > 100 µM (inactive) | > 100 µM (inactive) | > 100 µM (inactive) | > 100 µM (inactive) | > 100 µM (inactive) | > 100 µM (inactive) | > 100 µM (inactive) | – |
| COc1cccc2c1/c(=C/c1ccc(N(C)C)cc1)c1cc(-c3ccccc3)[n+](C)n12 | 0.131 µM (active) | 0.0773 µM (active) | 0.0875 µM (active) | 0.471 | 0.126 µM (active) | 0.112 µM (active) | 0.0813 µM (active) | – | 0.221 µM (active) | 0.177 µM (active) | 0.223 µM (active) | 0.0385 µM (active) | 0.259 µM (active) | 0.074 µM (active) | 0.131 µM (active) | 0.0736 µM (active) | 0.107 µM (active) | 0.239 µM (active) | 0.0857 µM (active) |
| CCN(CC)CCCNC(=O)c1cc(-c2nccn2C)nc2ccccc12 | > 100 µM (inactive) | > 100 µM (inactive) | > 100 µM (inactive) | > 100 | > 100 µM (inactive) | > 100 µM (inactive) | – | > 100 µM (inactive) | > 100 µM (inactive) | > 100 µM (inactive) | – | > 10 µM (inactive) | > 100 µM (inactive) | > 100 µM (inactive) | > 100 µM (inactive) | > 100 µM (inactive) | > 100 µM (inactive) | – | – |
| Cc1sc(Nc2ccccc2[N+](=O)[O-])c(C#N)c1C | – | > 100 µM (inactive) | 19.5 µM (inactive) | 23 | > 100 µM (inactive) | > 100 µM (inactive) | 26.2 µM (inactive) | 35.4 µM (inactive) | 0.0556 µM (active) | 39.7 µM (inactive) | 66.1 µM (inactive) | > 100 µM (inactive) | 19.6 µM (inactive) | 22.6 µM (inactive) | 13.9 µM (inactive) | – | > 100 µM (inactive) | 99.3 µM (inactive) | 19.8 µM (inactive) |
| BrCC(Br)(c1ccccc1)c1ccccc1-c1cc(-c2ccccc2)cc(-c2ccccc2)n1 (centres undefined) | 1.89 µM (inactive) | 1.84 µM (inactive) | 2.51 µM (inactive) | 15.2 | 4.38 µM (inactive) | 4.71 µM (inactive) | 2.9 µM (inactive) | 3.85 µM (inactive) | 3.16 µM (inactive) | 3.72 µM (inactive) | – | 3.89 µM (inactive) | 3.15 µM (inactive) | 3.64 µM (inactive) | 3.94 µM (inactive) | 2.25 µM (inactive) | 3.13 µM (inactive) | 4.46 µM (inactive) | – |
| O=C(Nc1ccccc1)n1[nH]c(=O)n(-c2ccccc2)c1=O | > 100 µM (inactive) | > 100 µM (inactive) | > 100 µM (inactive) | > 100 | – | > 100 µM (inactive) | > 100 µM (inactive) | – | > 100 µM (inactive) | > 100 µM (inactive) | > 100 µM (inactive) | > 100 µM (inactive) | > 100 µM (inactive) | > 100 µM (inactive) | > 100 µM (inactive) | > 100 µM (inactive) | > 100 µM (inactive) | > 100 µM (inactive) | – |
| Cc1nc2c(=O)n(C)c(=O)n(C)c2o1 | > 100 µM (inactive) | > 100 µM (inactive) | > 100 µM (inactive) | > 100 | > 100 µM (inactive) | > 100 µM (inactive) | > 100 µM (inactive) | > 100 µM (inactive) | > 100 µM (inactive) | > 100 µM (inactive) | > 100 µM (inactive) | > 100 µM (inactive) | > 100 µM (inactive) | > 100 µM (inactive) | > 100 µM (inactive) | > 100 µM (inactive) | > 100 µM (inactive) | – | > 100 µM (inactive) |
| CCOC(=O)c1c(O)nc2cccc3c2c1-c1cccnc1S3 | 56.1 µM (inactive) | 28.8 µM (inactive) | 22.4 µM (inactive) | 35.8 | 32.7 µM (inactive) | 18.9 µM (inactive) | 23.7 µM (inactive) | 30.3 µM (inactive) | 34 µM (inactive) | 19.9 µM (inactive) | 30.9 µM (inactive) | 28.6 µM (inactive) | 39 µM (inactive) | 36 µM (inactive) | 21 µM (inactive) | 29.4 µM (inactive) | – | 30.8 µM (inactive) | 28.6 µM (inactive) |
| Cc1cc2nnn(C3CCCCO3)c2cc1C (centres undefined) | > 100 µM (inactive) | > 100 µM (inactive) | > 100 µM (inactive) | > 100 | > 100 µM (inactive) | > 100 µM (inactive) | > 100 µM (inactive) | > 100 µM (inactive) | > 100 µM (inactive) | > 100 µM (inactive) | > 100 µM (inactive) | > 100 µM (inactive) | > 100 µM (inactive) | > 100 µM (inactive) | > 100 µM (inactive) | > 100 µM (inactive) | > 100 µM (inactive) | – | > 100 µM (inactive) |
| N#Cc1c(N)nc2c(c1-c1ccc(Br)cc1)CSc1ccccc1-2 | 27.2 µM (inactive) | 19.5 µM (inactive) | > 100 µM (inactive) | 25.6 | 41.7 µM (inactive) | 37.2 µM (inactive) | – | – | > 100 µM (inactive) | 16.1 µM (inactive) | 29.6 µM (inactive) | 68.4 µM (inactive) | 13.3 µM (inactive) | 27.1 µM (inactive) | 29.6 µM (inactive) | 34.6 µM (inactive) | 56 µM (inactive) | 68.7 µM (inactive) | 30.4 µM (inactive) |
| CC(OC(C)(C)C)[C@H](NC(=O)OC(C)(C)C)C(=O)O (some centres undefined) | – | > 100 µM (inactive) | > 100 µM (inactive) | > 100 | > 100 µM (inactive) | > 100 µM (inactive) | > 100 µM (inactive) | > 100 µM (inactive) | > 100 µM (inactive) | > 100 µM (inactive) | > 100 µM (inactive) | > 100 µM (inactive) | > 100 µM (inactive) | > 100 µM (inactive) | > 100 µM (inactive) | > 100 µM (inactive) | > 100 µM (inactive) | > 10 µM (inactive) | > 100 µM (inactive) |
| COc1cc2c(/C=C3/C(=O)Nc4cc(C)c(O)cc43)c(Cl)[nH]c2cc1C | 4.98 µM (inactive) | 0.368 µM (active) | 6.75 µM (inactive) | 3.33 | 1.86 µM (inactive) | 4.01 µM (inactive) | 1.52 µM (inactive) | – | 0.407 µM (active) | 5.69 µM (inactive) | 2.1 µM (inactive) | 0.376 µM (active) | 2.59 µM (inactive) | 2.59 µM (inactive) | 1.26 µM (inactive) | 2.33 µM (inactive) | 1.85 µM (inactive) | 4.91 µM (inactive) | 1.06 µM (active) |
| CC(=O)C1=C(C)N(c2ccc(C)cc2)C2(O)C=CC(=O)C3C(=O)N(c4ccccc4)C(=O)C132 (centres undefined) | 12.5 µM (inactive) | 36.3 µM (inactive) | 17.4 µM (inactive) | 11.2 | 24.4 µM (inactive) | 38.3 µM (inactive) | 14.4 µM (inactive) | 32.6 µM (inactive) | 19.6 µM (inactive) | 17.1 µM (inactive) | – | 2.94 µM (inactive) | 22.5 µM (inactive) | 30.6 µM (inactive) | 17.1 µM (inactive) | 18.6 µM (inactive) | 21.9 µM (inactive) | 19.5 µM (inactive) | 22.3 µM (inactive) |
| N#C[BH2-][n+]1cn(C2CC(O)C(COP(=O)(O)OC3CC(n4cnc5c(N)ncnc54)OC3CO)O2)c2nc(N)[nH]c(=O)c21 (centres undefined) | > 100 µM (inactive) | > 100 µM (inactive) | > 100 µM (inactive) | > 100 | > 100 µM (inactive) | > 100 µM (inactive) | > 100 µM (inactive) | > 100 µM (inactive) | > 100 µM (inactive) | > 100 µM (inactive) | – | > 100 µM (inactive) | > 100 µM (inactive) | > 100 µM (inactive) | > 100 µM (inactive) | > 100 µM (inactive) | > 100 µM (inactive) | > 100 µM (inactive) | > 100 µM (inactive) |
| Cc1cc(S(=O)(=O)/N=C(\NN)NNc2cccc(C(F)(F)F)n2)c(S)cc1Cl | 25.5 µM (inactive) | 18.2 µM (inactive) | 13.3 µM (inactive) | 18.8 | 17.9 µM (inactive) | 22.8 µM (inactive) | – | 22.6 µM (inactive) | 19.1 µM (inactive) | 18.3 µM (inactive) | 25.4 µM (inactive) | 21.3 µM (inactive) | 31.4 µM (inactive) | 19.4 µM (inactive) | – | 19.7 µM (inactive) | 16.9 µM (inactive) | 15 µM (inactive) | 22.1 µM (inactive) |
| Cc1c(O)ccc2c(O)c(NC(=O)c3ccc4c(c3)CCC(C)(C)O4)c(=O)oc12 [CYCLONOVOBIOCIC ACID] | > 100 µM (inactive) | > 100 µM (inactive) | > 100 µM (inactive) | > 100 | – | > 100 µM (inactive) | > 100 µM (inactive) | > 100 µM (inactive) | > 100 µM (inactive) | > 100 µM (inactive) | > 100 µM (inactive) | > 100 µM (inactive) | > 100 µM (inactive) | > 100 µM (inactive) | > 100 µM (inactive) | > 100 µM (inactive) | > 100 µM (inactive) | > 100 µM (inactive) | > 100 µM (inactive) |
